Among the test systems are A549; CCRF-CEM; HCC 2998; HCT-116; HCT-15; HOP-62; K562; LOX IMVI; NCI-H23; NCI-H460; OVCAR-5; RXF 393; SF-268; SF-295; SK-MEL-28; SK-MEL-2; SK-MEL-5; SN12C; SNB-19; UACC-257.
Assay in all cases: DTP human tumour cell line panel, 48 h

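Values below derive from 48-hour exposures of cells grown in 96-well plates, with endpoints linearly interpolated between the two concentrations bracketing the appropriate inhibition level. GI50: concentration for 50% inhibition of growth.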 Activity calls are given as the source filed them. Cut-off read from the data, not from the text of the source: active = GI50 up to about 1.1 µM and inactive = higher.

For orientation: GI50 means the concentration giving 50% growth inhibition. For `COc1cccc(NC(=O)CC(=O)n2nc(-c3ccccc3)c(/N=N/c3ccc(Cl)cc3)c2-c2ccccc2)c1`, the GI50 with A549 was 26.1 µM (inactive); with CCRF-CEM it was 6.92 µM (inactive); in the assay on HCC 2998, 17.2 µM (inactive); in the assay on HCT-116 it was 19.4 µM (inactive); in the assay with HCT-15, 11.5 µM; in the assay with HOP-62 it was 15.2 µM (inactive). In addition, the GI50 is 12.4 µM (inactive) in the assay with K562; 13.2 µM (inactive) in the assay with LOX IMVI; 20 µM (inactive) in the assay on NCI-H23; 10.5 µM (inactive) in the assay with NCI-H460; 64.9 µM (inactive) with OVCAR-5; 23 µM (inactive) in the assay on RXF 393. Besides, the GI50 in the assay with SF-268 was 11.6 µM (inactive); in the assay with SF-295, 12.9 µM (inactive); in the assay with SK-MEL-28 it was 25.5 µM (inactive); in the assay on SK-MEL-2, 21.5 µM (inactive); in the assay on SK-MEL-5, 16.8 µM (inactive); with SN12C, 18.6 µM (inactive). Further, the GI50 in the assay on SNB-19 is 17.8 µM (inactive); in the assay on UACC-257, 24.3 µM (inactive).
Consider `COC(=O)[C@@H](NC(=O)[C@H](N)Cc1ccc(N(CCCl)CCCl)cc1)C(C)C`, for which the GI50 in the assay on A549 is 18.2 µM (inactive); with CCRF-CEM it was 0.435 µM (active); with HCC 2998, 5.55 µM (inactive); with HCT-116, 15 µM (inactive); with HCT-15 it was 18.4 µM; with HOP-62, 19.9 µM (inactive). The GI50 in the assay with K562 was 12.9 µM (inactive); in the assay on LOX IMVI, 5.97 µM (inactive); in the assay with NCI-H23 it was 3.66 µM (inactive); in the assay with NCI-H460, 10.1 µM (inactive); with OVCAR-5, 36.5 µM (inactive); in the assay on RXF 393, 12 µM (inactive). Also, the GI50 was 10.6 µM (inactive) in the assay on SF-268; 18.7 µM (inactive) in the assay on SF-295; 11.9 µM (inactive) in the assay with SK-MEL-28; 28.9 µM (inactive) with SK-MEL-2; 1.78 µM (inactive) in the assay on SK-MEL-5; 13.9 µM (inactive) in the assay on SN12C. Besides, the GI50 in the assay on SNB-19 was > 54.1 µM (inactive); in the assay with UACC-257 it was 6.37 µM (inactive).
As to `COc1ccc(/C=C2\CC3C4CC=C5C[C@@H](O)CC[C@]5(C)C4CC[C@]3(C)\C2=N\O)cc1OC` (stereo not given in full), the GI50 in the assay on A549 was 5.2 µM (inactive); in the assay on CCRF-CEM it was 18.2 µM (inactive); in the assay on HCC 2998, 7.13 µM (inactive); in the assay on HCT-116 it was 5.14 µM (inactive); in the assay with HCT-15, 4.32 µM; in the assay with HOP-62, 18.2 µM (inactive). The GI50 was 4.98 µM (inactive) in the assay on K562; 6.92 µM (inactive) with LOX IMVI; 9.71 µM (inactive) in the assay with NCI-H23; 6.61 µM (inactive) in the assay on NCI-H460; 16 µM (inactive) in the assay on OVCAR-5; 7.73 µM (inactive) with RXF 393. Further, the GI50 was 18.1 µM (inactive) in the assay on SF-268; 4.13 µM (inactive) in the assay on SF-295; 23 µM (inactive) in the assay with SK-MEL-28; 7.57 µM (inactive) in the assay on SK-MEL-2; 4.1 µM (inactive) with SK-MEL-5; 15.7 µM (inactive) with SN12C. Further, the values for the GI50 in the assay with SNB-19 and in the assay on UACC-257 were 70.6 µM (inactive) and 7.94 µM (inactive), respectively.
`CCOCCOc1ccc(OCCOCC)cc1`: the GI50 with A549 was 37.6 µM (inactive); with CCRF-CEM, 2.74 µM (inactive); in the assay on HCC 2998, 37.3 µM (inactive); in the assay on HCT-116, 17.2 µM (inactive); with HCT-15 it was 16.9 µM; in the assay with HOP-62, > 100 µM (inactive). The GI50 is 7.91 µM (inactive) in the assay on K562; 17.9 µM (inactive) in the assay with LOX IMVI; 29.9 µM (inactive) in the assay on NCI-H23; 29.5 µM (inactive) in the assay on NCI-H460; > 100 µM (inactive) with OVCAR-5; 18.1 µM (inactive) in the assay on RXF 393. The GI50 in the assay with SF-268 is 17 µM (inactive); in the assay on SF-295, 25.4 µM (inactive); in the assay on SK-MEL-28, 20.3 µM (inactive); with SK-MEL-2, > 43 µM (inactive); with SK-MEL-5, 22.4 µM (inactive); in the assay on SN12C, 16.8 µM (inactive). Also, the results for the GI50 in the assay with SNB-19 and in the assay on UACC-257 were > 100 µM (inactive) and 17.5 µM (inactive), respectively.
On to `CSCC(CO)NC(=O)/C=C/c1c(C)[nH]c(=O)[nH]c1=O` (stereo not given), for which the GI50 is > 875 µM (inactive) in the assay with A549; 153 µM (inactive) in the assay on CCRF-CEM; 85.1 µM (inactive) in the assay on HCC 2998; 507 µM (inactive) in the assay on HCT-116; 485 µM in the assay on HCT-15; 596 µM (inactive) in the assay on HOP-62. Besides, the GI50 with K562 was 117 µM (inactive); with LOX IMVI, 457 µM (inactive); with NCI-H23 it was 690 µM (inactive); with NCI-H460, 671 µM (inactive); in the assay with OVCAR-5 it was 352 µM (inactive); in the assay with RXF 393, > 875 µM (inactive). Moreover, the GI50 with SF-268 is 223 µM (inactive); in the assay with SF-295 it was > 875 µM (inactive); in the assay on SK-MEL-28 it was > 875 µM (inactive); in the assay with SK-MEL-2, 597 µM (inactive); with SK-MEL-5, > 820 µM (inactive); in the assay on SN12C, 367 µM (inactive). Also, the GI50 in the assay on SNB-19 was 791 µM (inactive); in the assay with UACC-257, 820 µM (inactive).
Take `CC(C)=CC(=O)OC1C2C(C)=CC(O)C(O)C2(C)C2C3(O)OCC24C(CC(=O)OC14)C(C)C3O` (stereo not given): the GI50 is 1.16 µM (inactive) in the assay on A549; 0.0462 µM (active) with CCRF-CEM; 0.101 µM (active) with HCC 2998; 0.0361 µM (active) with HCT-116; 0.476 µM in the assay on HCT-15; 0.168 µM (active) in the assay with HOP-62. Besides, the 50% growth inhibitory concentration (GI50) with K562 is 0.0378 µM (active); in the assay with LOX IMVI it was 0.0371 µM (active); in the assay with NCI-H23 it was 0.0611 µM (active); with NCI-H460 it was 0.0596 µM (active); in the assay with OVCAR-5, 0.802 µM (active); with RXF 393, 0.183 µM (active). Moreover, the 50% growth inhibitory concentration (GI50) was 0.182 µM (active) in the assay on SF-268; 0.28 µM (active) in the assay on SF-295; 0.0362 µM (active) in the assay on SK-MEL-28; 0.173 µM (active) with SK-MEL-2; 0.0252 µM (active) with SK-MEL-5; 0.386 µM (active) in the assay with SN12C. In addition, the 50% growth inhibitory concentration (GI50) is 0.14 µM (active) in the assay with SNB-19 and 0.104 µM (active) in the assay with UACC-257.
For `CC(C)=C1C2CC3(C)CCC2(C)CCC13.CC1=CCC2C3(C)CCC2(C(C)C)C1C3` (stereo not given), the GI50 was 19.7 µM (inactive) with A549; 24.5 µM (inactive) in the assay with CCRF-CEM; 23.1 µM (inactive) in the assay with HCC 2998; 31.6 µM (inactive) in the assay on HCT-116; 16.9 µM in the assay on HCT-15; 22.3 µM (inactive) with HOP-62. The GI50 was 31.4 µM (inactive) in the assay with K562; 28.8 µM (inactive) in the assay with LOX IMVI; 38.3 µM (inactive) in the assay on NCI-H23; 17.2 µM (inactive) in the assay on NCI-H460; 18.9 µM (inactive) in the assay with OVCAR-5; 17.8 µM (inactive) in the assay on RXF 393. In addition, the GI50 was 19.3 µM (inactive) in the assay with SF-268; 20 µM (inactive) in the assay with SF-295; 34.2 µM (inactive) with SK-MEL-28; 17.5 µM (inactive) with SK-MEL-2; 10 µM (inactive) in the assay with SK-MEL-5; 18.2 µM (inactive) with SN12C. The values for the GI50 with SNB-19 and in the assay on UACC-257 were 18.4 µM (inactive) and 27.2 µM (inactive), respectively.
For the compound `CN(C)C(=O)C1CCC(=C2C(=O)OC(C)(C)OC2=O)N1C` (stereo not given), the GI50 is > 100 µM (inactive) in the assay with A549; > 100 µM (inactive) with CCRF-CEM; > 100 µM (inactive) with HCC 2998; > 100 µM (inactive) in the assay on HCT-116; greater than 100 µM with HCT-15; > 100 µM (inactive) in the assay with HOP-62. The GI50 in the assay with K562, in the assay on LOX IMVI, with NCI-H23, with NCI-H460, with OVCAR-5 and in the assay with RXF 393 was > 100 µM (inactive) in each case. In addition, the GI50 with SF-268, in the assay on SF-295, in the assay on SK-MEL-28, with SK-MEL-2, in the assay with SK-MEL-5 and with SN12C was > 100 µM (inactive) throughout. Moreover, the GI50 with SNB-19 and in the assay on UACC-257 was > 100 µM (inactive) each time.

Source of the values: ChEMBL document CHEMBL1201862, “PubChem BioAssay data set” (2004).
